From the NIST ThermoML archive (doi:10.1021/je050021e)

Experiment: xn = mol fraction of the nth substance listed
Conditions: Liquid

COCCOCCOCCOC [2,5,8,11-tetraoxadodecane] + O
Conditions | mass density, 101.3 kPa [kg/m3] | viscosity, 101 kPa [mPa·s]
303.15 K, x1 = 0.0198 | 1004.97 | 1.38
303.15 K, x1 = 0.05 | 1015.35 | 2.38
303.15 K, x1 = 0.07 | 1019.1 | 2.99
303.15 K, x1 = 0.1 | 1020.68 | 3.6
303.15 K, x1 = 0.2 | 1012.62 | 3.76
303.15 K, x1 = 0.3 | 1002.98 | 3.13
303.15 K, x1 = 0.4 | 995.48 | 2.67
303.15 K, x1 = 0.5 | 990.09 | 2.38
303.15 K, x1 = 0.6 | 985.94 | 2.14
303.15 K, x1 = 0.7 | 982.66 | 1.99
303.15 K, x1 = 0.8 | 979.8 | 1.9
303.15 K, x1 = 0.9 | 977.61 | 1.82
303.15 K, x1 = 1 | 975.86 | 1.77
313.15 K, x1 = 0.0198 | 1000.31 | 1.09
313.15 K, x1 = 0.05 | 1008.77 | 1.79
313.15 K, x1 = 0.07 | 1011.54 | 2.19
313.15 K, x1 = 0.1 | 1012.19 | 2.6
313.15 K, x1 = 0.2 | 1003.21 | 2.8
313.15 K, x1 = 0.3 | 993.51 | 2.39
313.15 K, x1 = 0.4 | 985.98 | 2.09
313.15 K, x1 = 0.5 | 980.57 | 1.94
313.15 K, x1 = 0.6 | 976.37 | 1.73
313.15 K, x1 = 0.7 | 973.09 | 1.65
313.15 K, x1 = 0.8 | 970.25 | 1.58
313.15 K, x1 = 0.9 | 968.06 | 1.51
313.15 K, x1 = 1 | 966.36 | 1.48
323.15 K, x1 = 0.0198 | 995.02 | 0.876
323.15 K, x1 = 0.05 | 1001.79 | 1.39
323.15 K, x1 = 0.07 | 1003.67 | 1.67
323.15 K, x1 = 0.1 | 1003.47 | 1.96
323.15 K, x1 = 0.2 | 993.71 | 2.1
323.15 K, x1 = 0.3 | 983.93 | 1.88
323.15 K, x1 = 0.4 | 976.37 | 1.69
323.15 K, x1 = 0.5 | 970.93 | 1.6
323.15 K, x1 = 0.6 | 966.77 | 1.44
323.15 K, x1 = 0.7 | 963.5 | 1.37
323.15 K, x1 = 0.8 | 960.68 | 1.32
323.15 K, x1 = 0.9 | 958.5 | 1.27
323.15 K, x1 = 1 | 956.85 | 1.26
333.15 K, x1 = 0.0198 | 989.18 | 0.728
333.15 K, x1 = 0.05 | 994.39 | –
333.15 K, x1 = 0.07 | 995.46 | 1.33
333.15 K, x1 = 0.1 | 994.52 | 1.53
333.15 K, x1 = 0.2 | 984.05 | 1.66
333.15 K, x1 = 0.3 | 974.23 | 1.52
333.15 K, x1 = 0.4 | 966.69 | 1.4
333.15 K, x1 = 0.5 | 961.2 | 1.3
333.15 K, x1 = 0.6 | 957.06 | 1.21
333.15 K, x1 = 0.7 | 953.78 | 1.16
333.15 K, x1 = 0.8 | 950.98 | 1.13
333.15 K, x1 = 0.9 | 948.9 | 1.1
333.15 K, x1 = 1 | 947.32 | 1.08
343.15 K, x1 = 0.0198 | 982.78 | 0.617
343.15 K, x1 = 0.05 | 986.6 | 0.922
343.15 K, x1 = 0.07 | 986.96 | 1.08
343.15 K, x1 = 0.1 | 985.33 | 1.24
343.15 K, x1 = 0.2 | 974.27 | 1.34
343.15 K, x1 = 0.3 | 964.41 | 1.26
343.15 K, x1 = 0.4 | 956.86 | 1.17
343.15 K, x1 = 0.5 | 951.36 | 1.1
343.15 K, x1 = 0.6 | 947.25 | 1.04
343.15 K, x1 = 0.7 | 943.99 | 0.998
343.15 K, x1 = 0.8 | 941.33 | 0.976
343.15 K, x1 = 0.9 | 939.3 | 0.952
343.15 K, x1 = 1 | 937.72 | 0.945

CC(=O)N1CCOCC1 [4-acetylmorpholine] + O
101 kPa
Conditions | mass density [kg/m3] | viscosity [mPa·s]
298.15 K, x1 = 0.05 | 1034.97 | 1.79
298.15 K, x1 = 0.07 | 1046.13 | 2.22
298.15 K, x1 = 0.1 | 1060.06 | 3.22
298.15 K, x1 = 0.2 | 1087.71 | 5.96
298.15 K, x1 = 0.3 | 1100.16 | 8.7
298.15 K, x1 = 0.4 | 1106 | 10.1
298.15 K, x1 = 0.5 | 1108.55 | 10.4
298.15 K, x1 = 0.6 | 1109.77 | 10.5
298.15 K, x1 = 0.7 | 1110.29 | 9.61
298.15 K, x1 = 0.8 | 1110.46 | 9.18
298.15 K, x1 = 0.9 | 1110.4 | 8.79
298.15 K, x1 = 1 | 1110.33 | 8.48
303.15 K, x1 = 0.05 | 1032.47 | 1.56
303.15 K, x1 = 0.07 | 1043.32 | 1.96
303.15 K, x1 = 0.1 | 1056.85 | 2.75
303.15 K, x1 = 0.2 | 1083.85 | 4.94
303.15 K, x1 = 0.3 | 1095.95 | 7.01
303.15 K, x1 = 0.4 | 1101.68 | 8.02
303.15 K, x1 = 0.5 | 1104.19 | 8.29
303.15 K, x1 = 0.6 | 1105.39 | 8.48
303.15 K, x1 = 0.7 | 1105.93 | 7.89
303.15 K, x1 = 0.8 | 1106.12 | 7.56
303.15 K, x1 = 0.9 | 1106.08 | 7.3
303.15 K, x1 = 1 | 1106 | 7.1
313.15 K, x1 = 0.05 | 1027.12 | 1.23
313.15 K, x1 = 0.07 | 1037.36 | 1.52
313.15 K, x1 = 0.1 | 1050.17 | 2.1
313.15 K, x1 = 0.2 | 1075.73 | 3.55
313.15 K, x1 = 0.3 | 1087.43 | 4.8
313.15 K, x1 = 0.4 | 1092.98 | 5.47
313.15 K, x1 = 0.5 | 1095.41 | 5.68
313.15 K, x1 = 0.6 | 1096.65 | 5.77
313.15 K, x1 = 0.7 | 1097.23 | 5.56
313.15 K, x1 = 0.8 | 1097.4 | 5.42
313.15 K, x1 = 0.9 | 1097.41 | 5.28
313.15 K, x1 = 1 | 1097.35 | 5.18
323.15 K, x1 = 0.05 | 1021.29 | 0.998
323.15 K, x1 = 0.07 | 1031.03 | 1.21
323.15 K, x1 = 0.1 | 1043.19 | 1.65
323.15 K, x1 = 0.2 | 1067.57 | 2.68
323.15 K, x1 = 0.3 | 1078.79 | 3.51
323.15 K, x1 = 0.4 | 1084.2 | 3.96
323.15 K, x1 = 0.5 | 1086.6 | 4.13
323.15 K, x1 = 0.6 | 1087.84 | 4.4
323.15 K, x1 = 0.7 | 1088.43 | 4.13
323.15 K, x1 = 0.8 | 1088.71 | 4.06
323.15 K, x1 = 0.9 | 1088.78 | 4
323.15 K, x1 = 1 | 1088.74 | 3.96
333.15 K, x1 = 0.05 | 1015.01 | 0.857
333.15 K, x1 = 0.07 | 1024.27 | 1.04
333.15 K, x1 = 0.1 | 1035.89 | 1.24
333.15 K, x1 = 0.2 | 1059.2 | 2.05
333.15 K, x1 = 0.3 | 1069.99 | 2.66
333.15 K, x1 = 0.4 | 1075.32 | 3
333.15 K, x1 = 0.5 | 1077.66 | 3.13
333.15 K, x1 = 0.6 | 1078.93 | 3.41
333.15 K, x1 = 0.7 | 1079.63 | 3.18
333.15 K, x1 = 0.8 | 1079.97 | 3.17
333.15 K, x1 = 0.9 | 1080.1 | 3.14
333.15 K, x1 = 1 | 1080.14 | 3.12
343.15 K, x1 = 0.05 | 1008.29 | 0.743
343.15 K, x1 = 0.07 | 1017.17 | 0.861
343.15 K, x1 = 0.1 | 1028.29 | 1.03
343.15 K, x1 = 0.2 | 1050.63 | 1.66
343.15 K, x1 = 0.3 | 1061.11 | 2.09
343.15 K, x1 = 0.4 | 1066.32 | 2.34
343.15 K, x1 = 0.5 | 1068.66 | 2.46
343.15 K, x1 = 0.6 | 1070 | 2.59
343.15 K, x1 = 0.7 | 1070.82 | 2.54
343.15 K, x1 = 0.8 | 1071.21 | 2.53
343.15 K, x1 = 0.9 | 1071.43 | 2.54
343.15 K, x1 = 1 | 1071.55 | 2.55
